The text below walks through data of BindingDB's records for doi:10.1016/j.ejmech.2019.04.066 (Shanghai Ocean University, 2019).

The test in a line: Inhibition of ICAM-1 in human A549 cells after 1 hr in presence of IL-1beta.

For `C[C@@H]1C(=O)O[C@H]2[C@H]1CC[C@@]1(C)C[C@@H](Br)C(=O)[C@@H](C)[C@H]21`, the IC50 – broadly, the concentration that gives 50% inhibition – was 5.9 µM.
